Test [1] addresses T1, topoisomerase IV (Escherichia coli, UniProt P0AFI2+P20083). In words: Topoisomerase IV relaxation, gel electrophoresis assay. Format: biochemical.
The target in test [2] is T1, topoisomerase IV. In words: Topoisomerase IV relaxation, microplate assay. Format: biochemical.

SMILES strings stand for the structures.

One may read the IC50 as the concentration that gives 50% inhibition.

T1 sequence (P20083 whole entry): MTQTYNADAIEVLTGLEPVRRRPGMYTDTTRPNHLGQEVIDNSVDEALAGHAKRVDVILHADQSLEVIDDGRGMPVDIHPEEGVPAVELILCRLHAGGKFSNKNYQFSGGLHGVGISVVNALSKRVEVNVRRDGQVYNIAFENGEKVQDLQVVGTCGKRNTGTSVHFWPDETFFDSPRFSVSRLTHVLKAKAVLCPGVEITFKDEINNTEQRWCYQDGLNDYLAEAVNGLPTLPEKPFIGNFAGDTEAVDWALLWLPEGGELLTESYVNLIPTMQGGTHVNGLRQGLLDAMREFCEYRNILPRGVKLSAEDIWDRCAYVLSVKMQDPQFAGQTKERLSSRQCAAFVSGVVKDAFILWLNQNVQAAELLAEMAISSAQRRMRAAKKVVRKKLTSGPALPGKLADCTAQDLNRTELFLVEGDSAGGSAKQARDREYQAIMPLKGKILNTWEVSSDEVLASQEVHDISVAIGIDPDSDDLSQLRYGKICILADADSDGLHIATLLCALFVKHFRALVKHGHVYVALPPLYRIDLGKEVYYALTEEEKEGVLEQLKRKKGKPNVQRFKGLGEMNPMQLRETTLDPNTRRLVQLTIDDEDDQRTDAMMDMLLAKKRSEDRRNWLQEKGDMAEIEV
T1 sequence (P0AFI2 whole entry): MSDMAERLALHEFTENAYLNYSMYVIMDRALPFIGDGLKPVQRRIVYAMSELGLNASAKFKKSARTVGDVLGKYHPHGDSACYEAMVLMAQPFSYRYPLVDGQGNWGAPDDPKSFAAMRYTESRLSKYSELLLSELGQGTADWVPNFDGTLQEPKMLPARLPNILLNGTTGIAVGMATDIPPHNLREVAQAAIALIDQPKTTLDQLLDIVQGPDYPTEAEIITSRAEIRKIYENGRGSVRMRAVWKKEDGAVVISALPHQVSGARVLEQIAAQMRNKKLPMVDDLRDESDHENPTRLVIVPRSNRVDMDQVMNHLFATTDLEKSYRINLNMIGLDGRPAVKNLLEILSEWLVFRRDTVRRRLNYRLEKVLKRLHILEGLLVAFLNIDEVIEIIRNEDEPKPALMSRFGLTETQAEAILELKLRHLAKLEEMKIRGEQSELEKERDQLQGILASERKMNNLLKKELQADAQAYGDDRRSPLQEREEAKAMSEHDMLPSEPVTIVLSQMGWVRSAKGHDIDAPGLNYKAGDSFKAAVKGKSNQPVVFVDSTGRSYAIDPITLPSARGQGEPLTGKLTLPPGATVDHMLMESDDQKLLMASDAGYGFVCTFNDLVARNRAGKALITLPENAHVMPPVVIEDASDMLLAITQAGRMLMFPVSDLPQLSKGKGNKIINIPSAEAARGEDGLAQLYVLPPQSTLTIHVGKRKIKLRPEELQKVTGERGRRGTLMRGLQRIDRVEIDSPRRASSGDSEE

Consider `CCn1cc(C(=O)O)c(=O)c2ccc(C)nc21` [Naladixic acid], for which the IC50 in test [1] came to 36.3 µM; in test [2], 88.4 µM.

Turning to `CO[C@@H]1[C@@H](OC(=O)c2ccc(C)[nH]2)[C@@H](O)[C@H](Oc2ccc3c(O)c(NC(=O)c4ccc(O)c(CC=C(C)C)c4)c(=O)oc3c2Cl)OC1(C)C` [Chlorbiocin], the IC50 was 0.14 µM in test [1] (supercoiled pNO1 substrate, gel assay, read-out: Topo IV Relaxation IC50 Gel assay) and 0.32 µM in test [2] (supercoiled pNO1 substrate, plate assay, read-out: Topo IV Relaxation IC50 Plate assay).

For the origin of these results see patent publication US7838230B2 (priority 2004, dated 2010).
